Here are results for 32 compounds from patent publication US20210198277A1, “AMINE-SUBSTITUTED ARYL OR HETEROARYL COMPOUNDS” (Epizyme, Inc., priority 2016, published 2021).

This assay concerns the target T1, EHMT2 (Homo sapiens, UniProt Q96KQ7).
T1 construct: host or cells: MDA-MB-231
T1 sequence (Q96KQ7 1-1210): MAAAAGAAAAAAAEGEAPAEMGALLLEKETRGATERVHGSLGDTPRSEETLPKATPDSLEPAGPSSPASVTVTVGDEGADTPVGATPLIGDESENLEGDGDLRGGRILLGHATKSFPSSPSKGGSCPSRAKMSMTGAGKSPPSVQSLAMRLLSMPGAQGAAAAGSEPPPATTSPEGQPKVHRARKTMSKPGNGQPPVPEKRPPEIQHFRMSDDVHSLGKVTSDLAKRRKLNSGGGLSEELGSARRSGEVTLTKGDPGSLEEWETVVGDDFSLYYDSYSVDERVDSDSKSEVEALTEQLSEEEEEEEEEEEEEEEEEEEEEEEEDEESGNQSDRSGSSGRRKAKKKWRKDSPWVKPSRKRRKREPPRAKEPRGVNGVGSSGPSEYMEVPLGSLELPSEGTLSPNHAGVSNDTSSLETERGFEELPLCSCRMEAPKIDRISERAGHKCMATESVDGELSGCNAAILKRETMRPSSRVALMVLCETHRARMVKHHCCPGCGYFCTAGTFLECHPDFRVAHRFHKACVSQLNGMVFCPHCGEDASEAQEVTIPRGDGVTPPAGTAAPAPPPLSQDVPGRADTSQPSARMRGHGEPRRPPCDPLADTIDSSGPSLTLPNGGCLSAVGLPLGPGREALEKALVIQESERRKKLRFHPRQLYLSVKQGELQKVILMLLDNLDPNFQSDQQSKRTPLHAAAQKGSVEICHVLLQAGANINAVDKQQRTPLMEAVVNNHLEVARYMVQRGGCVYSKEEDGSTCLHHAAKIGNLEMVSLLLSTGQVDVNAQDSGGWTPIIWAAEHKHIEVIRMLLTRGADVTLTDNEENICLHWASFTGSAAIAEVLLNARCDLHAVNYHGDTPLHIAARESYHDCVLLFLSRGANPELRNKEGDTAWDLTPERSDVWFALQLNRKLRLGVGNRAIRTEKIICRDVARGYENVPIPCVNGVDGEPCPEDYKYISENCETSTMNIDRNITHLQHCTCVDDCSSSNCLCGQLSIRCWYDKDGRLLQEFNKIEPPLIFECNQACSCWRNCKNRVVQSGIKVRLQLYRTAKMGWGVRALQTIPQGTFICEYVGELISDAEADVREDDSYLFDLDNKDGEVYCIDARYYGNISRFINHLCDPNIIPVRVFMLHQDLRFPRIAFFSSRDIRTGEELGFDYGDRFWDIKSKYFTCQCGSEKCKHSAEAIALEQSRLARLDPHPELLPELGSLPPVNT
Put plainly: MDA-MB-231 H3K9me2 in-cell Western assay (EHMT2 ICW). The class given is cell-based. The note with it: Table VI; read-out: EHMT2 ICW IC50. A digest of the protocol:
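MDA-MB-231 cells (3,000/well) seeded onto compound, kept 30 min at room temperature, then 48 h at 37 °C, 5% CO2. IC50 from triplicate wells, four-parameter fit.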

Usually IC50 stands for the concentration that gives 50% inhibition. For `CNc1cc(C)nc(Nc2cc(OCCCN3CCCC3)c3oncc3c2)n1` [Compound 793], the IC50 is above 10000 nM.
The result for `COc1ccc(Nc2nn(C)c3cnccc23)cc1OCCCN1CCCC1` [Compound 794] reads above 10000 nM; that for `COc1cnc(Nc2nn(C)c3cnccc23)cc1OCCCN1CCCC1` [Compound 795], above 10000 nM; that for `COc1ccc(Nc2cc(C)[nH]n2)cc1OCCCN1CCCC1` [Compound 796], above 10000 nM.
As for `COc1ccc(Nc2cc(C)n(C)n2)cc1OCCCN1CCCC1` [Compound 797], the IC50 is above 10000 nM.
Regarding `CNc1cc(C)nc(Nc2cnc(OC)c(OC[C@@H]3CCN(C4CCC4)C3)c2)n1` [Compound 798], the half-inhibitory concentration (IC50) fell in the range of 100 to 1000 nM.
Take `COc1ccc(Nc2nc(C)cc(NC(C)C)n2)cc1OC[C@@H]1CCNC1` [Compound 800]: the concentration for half-maximal inhibition (IC50) was in the range of 100 to 1000 nM.
The value for `COc1cnc(Nc2nccc3nccn23)cc1OC[C@@H]1CCNC1` [Compound 801] was above 10000 nM.
For the compound `CNc1cc(C2CCOCC2)c2cc(OC)c(OC[C@@H]3CCNC3)cc2n1` [Compound 802], the half-maximal inhibitory concentration (IC50) lay within 1000 to 10000 nM.
In the case of `CNc1cc(C2CCOCC2)c2cc(OC)c(OC[C@@H]3CCN(C)C3)cc2n1` [Compound 803], the IC50 was in the range of 1000 to 10000 nM.
Regarding `COc1cc(NC2CCOCC2)ncc1OCC1CCNC1` (centres unmarked) [Compound 806], the IC50 is above 10000 nM.
`COc1cc(N(C)C2CCOCC2)ncc1OCC1CCNC1` (centres unmarked) [Compound 808]: the IC50 was above 10000 nM.
`CNc1cc(C2CCN(C(C)=O)CC2)c2cc(OC)c(OCCCN3CCCC3)cc2n1` [Compound 809]: the half-inhibitory concentration (IC50) was 100 to 1000 nM.
Take `COc1cc2c(C)cc(N3CCCCC3)nc2cc1OCCCN1CCCC1` [Compound 810]: the 50% inhibitory concentration (IC50) fell in the range of 1000 to 10000 nM.
The result for `COc1cc2c(C)nc(N3CCCCC3)nc2cc1OCCCN1CCCC1` [Compound 811] reads above 10000 nM; that for `COc1cc2c(C3CCN(C)CC3)cc(N3CCCCC3)nc2cc1OCCCN1CCCC1` [Compound 812], 100 to 1000 nM.
On to `CNc1cc(C)nc(Nc2ccc(OC)c(CN[C@H]3CCNC3)c2)n1` [Compound 813], for which the IC50 was above 10000 nM.
The result for `CNc1cc(C)nc(Nc2ccc(OC)c(CN[C@@H]3CCNC3)c2)c1` [Compound 814] reads above 10000 nM.
The value for `CNc1cc(C2CCCCC2)c2cc(OC)c(OCCCN3CCCC3)cc2n1` [Compound 816] was 100 to 1000 nM; that for `CNc1cc(C(C)C)c2cc(OC)c(OCCCN3CCCC3)cc2n1` [Compound 817] was 100 to 1000 nM; that for `COc1cc2c(C3CCOCC3)cc(=O)[nH]c2cc1OCCCN1CCCC1` [Compound 822] was above 10000 nM.
The value for `CNc1cc(CC2CCOCC2)c2cc(OC)c(OCCCN3CCCC3)cc2n1` [Compound 823] was 100 to 1000 nM; that for `COc1cc2c(C3CCOCC3)cc(N3CCCCC3)nc2cc1OCCCN1CCCC1` [Compound 824] was 1000 to 10000 nM.
For `COc1cc2c(C3CCOCC3)cc(N(C)C)nc2cc1OCCCN1CCCC1` [Compound 825], the IC50 fell in the range of 1000 to 10000 nM.
The result for `CNc1cc(C2CCN(CCC(F)(F)F)CC2)c2cc(OC)c(OCCCN3CCCC3)cc2n1` [Compound 832] reads below 100 nM; that for `CNc1cc(C2CCN(CC(F)(F)F)CC2)c2cc(OC)c(OCCCN3CCCC3)cc2n1` [Compound 833], 100 to 1000 nM.
With `COc1cc2c(C3CCN(C(C)=O)CC3)cc(C)nc2cc1OCCCN1CCCC1` [Compound 834], the IC50 lay within 1000 to 10000 nM.
On to `CCS(=O)(=O)N1CCC(c2cc(C)nc3cc(OCCCN4CCCC4)c(OC)cc23)CC1` [Compound 836], for which the IC50 was 1000 to 10000 nM.
The result for `COc1cc2c(C3CCN(CC(F)(F)F)CC3)cc(C)nc2cc1OCCCN1CCCC1` [Compound 837] reads 1000 to 10000 nM.
The result for `COc1cc2c(C3CCN(CCC(F)(F)F)CC3)cc(C)nc2cc1OCCCN1CCCC1` [Compound 838] reads 100 to 1000 nM; that for `CNc1cc(C2CCN(CCOC)CC2)c2cc(OC)c(OCCCN3CCCC3)cc2n1` [Compound 839], below 100 nM.
The result for `COc1cc2c(C3CCN(CC(F)(F)F)CC3)nc(C)nc2cc1OCCCN1CCCC1` [Compound 841] reads above 10000 nM.
